# Reference: patent US20100041892A1, “Therapeutic agent for diabetes” (priority 2005, published 2010)
row,melting point [°C],SMILES
1,143 to 144,"CC(C)CCS(=O)(=O)NC(=O)/C=C/c1cc(OC2CCOCC2)nn1Cc1ccc(Cl)cc1Cl [Example 117, (2E)-3-[1-(2,4-dichlorobenzyl)-3-(tetrahydro-2H-pyran-4-yloxy)-1H-pyrazol-5-yl]-N-[(3-methylbutyl)sulfonyl]acrylamide]"
2,145 to 147,"CC(C)CCS(=O)(=O)NC(=O)/C=C/c1cc(C2CC2)nn1Cc1ccc(C(F)(F)F)cc1Cl [Example 118, (2E)-3-{1-[2-chloro-4-(trifluoromethyl)benzyl]-3-cyclopropyl-1H-pyrazol-5-yl}-N-[(3-methylbutyl)sulfonyl]acrylamide]"
3,137 to 138,"COCCCS(=O)(=O)NC(=O)/C=C/c1cc(OCC2CC2)nn1Cc1ccc(C(F)(F)F)cc1Cl [Example 119, (2E)-3-[1-[2-chloro-4-(trifluoromethyl)benzyl]-3-(cyclopropylmethoxy)-1H-pyrazol-5-yl]-N-[(3-methoxypropyl)sulfonyl]acrylamide]"
4,152 to 154,"COCCCS(=O)(=O)NC(=O)CCc1cc(OCC2CC2)nn1Cc1ccc(C(F)(F)F)cc1Cl [Example 120, 3-[1-[2-chloro-4-(trifluoromethyl)benzyl]-3-(cyclopropylmethoxy)-1H-pyrazol-5-yl]-N-[(3-methoxypropyl)sulfonyl]propanamide]"
5,136 to 137,"CCCCCS(=O)(=O)NC(=O)CCc1cc(C(C)(C)C)nn1Cc1ccc(C(F)(F)F)cc1Cl [Example 122, 3-{3-tert-butyl-1-[2-chloro-4-(trifluoromethyl)benzyl]-1H-pyrazol-5-yl}-N-(pentylsulfonyl)propanamide]"
6,149 to 150,"COCCCS(=O)(=O)NC(=O)CCc1cc(C(C)(C)C)nn1Cc1ccc(C(F)(F)F)cc1Cl [Example 123, 3-{3-tert-butyl-1-[2-chloro-4-(trifluoromethyl)benzyl]-1H-pyrazol-5-yl}-N-[(3-methoxypropyl)sulfonyl]propanamide]"
7,152 to 153,"CC(C)Oc1cc(/C=C/S(=O)(=O)NC(=O)OC(C)(C)C)n(Cc2ccc(Cl)cc2Cl)n1 [Example 124, tert-butyl ({(E)-2-[1-(2,4-dichlorobenzyl)-3-isopropoxy-1H-pyrazol-5-yl]vinyl}sulfonyl)carbamate]"
8,73 to 75,"CCCCCC(=O)NS(=O)(=O)/C=C/c1cc(OC(C)C)nn1Cc1ccc(Cl)cc1Cl [Example 125, N-({(E)-2-[1-(2,4-dichlorobenzyl)-3-isopropoxy-1H-pyrazol-5-yl]vinyl}sulfonyl)hexanamide]"
9,107 to 108,"CCCCCC(=O)NS(=O)(=O)CCc1cc(OC(C)C)nn1Cc1ccc(Cl)cc1Cl [Example 126, N-({2-[1-(2,4-dichlorobenzyl)-3-isopropoxy-1H-pyrazol-5-yl]ethyl}sulfonyl)hexanamide]"
10,104 to 107,"CC(C)CCS(=O)(=O)NC(=O)OCc1cc(OC(C)C)nn1Cc1ccc(Cl)cc1Cl [Example 141, [1-(2,4-dichlorobenzyl)-3-isopropoxy-1H-pyrazol-5-yl]methyl [(3-methylbutyl)sulfonyl]carbamate]"
11,126 to 128,"CCCCCS(=O)(=O)NC(=O)OCc1cc(OC(C)C)nn1Cc1ccc(Cl)cc1Cl [Example 142, [1-(2,4-dichlorobenzyl)-3-isopropoxy-1H-pyrazol-5-yl]methyl (pentylsulfonyl)carbamate]"
12,104 to 105,"CC(C)Oc1cc(CCC(=O)NS(C)(=O)=O)n(Cc2ccc(Cl)cc2Cl)n1 [Example 148, 3-[1-(2,4-dichlorobenzyl)-3-isopropoxy-1H-pyrazol-5-yl]-N-(methylsulfonyl)propanamide]"
13,130.5 to 132.5,"CCCCCS(=O)(=O)NC(=O)/C=C/c1cc(OCCOC)nn1Cc1ccc(C(F)(F)F)cc1Cl [Example 149, (2E)-3-[1-[2-chloro-4 (trifluoromethyl)benzyl]-3-(2-methoxyethoxy)-1H-pyrazol-5-yl]-N-(pentylsulfonyl)acrylamide]"
14,149.5 to 152.5,"CC(C)CCS(=O)(=O)NC(=O)/C=C/c1cc(OC2CCOCC2)nn1Cc1ccc(C(F)(F)F)cc1Cl [Example 153, (2E)-3-[1-[2-chloro-4-(trifluoromethyl)benzyl]-3-(tetrahydro-2H-pyran-4-yloxy)-1H-pyrazol-5-yl]-N-[(3-methylbutyl)sulfonyl]acrylamide]"
15,160.5 to 161,"CCCCCS(=O)(=O)NC(=O)/C=C/c1cc(OC2CCOCC2)nn1Cc1ccc(C(F)(F)F)cc1Cl [Example 154, (2E)-3-[1-[2-chloro-4-(trifluoromethyl)benzyl]-3-(tetrahydro-2H-pyran-4-yloxy)-1H-pyrazol-5-yl]-N-(pentylsulfonyl)acrylamide]"
16,160.5 to 162.5,"CC(C)CCS(=O)(=O)NC(=O)CCc1cc(C2CC2)nn1Cc1ccc(C(F)(F)F)cc1Cl [Example 157, 3-{1-[2-chloro-4-(trifluoromethyl)benzyl]-3-cyclopropyl-1H-pyrazol-5-yl}-N-[(3-methylbutyl)sulfonyl]propanamide]"
17,97.5 to 98.3,"CCCCCS(=O)(=O)NC(=O)/C=C/c1ccc(OCCOC)cc1OCC1CCCCC1 [Example 158, (2E)-3-[2-(cyclohexylmethoxy)-4-(2-methoxyethoxy)phenyl]-N-(pentylsulfonyl)acrylamide]"
18,81 to 82,"CCCCCS(=O)(=O)NC(=O)CCc1ccc(OCCOC)cc1OCC1CCCCC1 [Example 159, 3-[2-(cyclohexylmethoxy)-4-(2-methoxyethoxy)phenyl]-N-(pentylsulfonyl)propanamide]"
19,64.8 to 66.3,"CCCCCS(=O)(=O)NC(=O)/C=C/c1ccc(OCCOC)cc1OCC1CC1 [Example 160, (2E)-3-[2-(cyclopropylmethoxy)-4-(2-methoxyethoxy)phenyl]-N-(pentylsulfonyl)acrylamide]"

row,SMILES,melting point [°C]
1,"CCCCOc1cc(/C=C/S(=O)(=O)NC(=O)OC(C)(C)C)n(Cc2ccc(Cl)cc2Cl)n1 [Example 127, tert-butyl ({(E)-2-[3-butoxy-1-(2,4-dichlorobenzyl)-1H-pyrazol-5-yl]vinyl}sulfonyl)carbamate]",152 to 153
2,"CCCCCC(=O)NS(=O)(=O)CCc1cc(OCCCC)nn1Cc1ccc(Cl)cc1Cl [Example 128, N-({2-[3-butoxy-1-(2,4-dichlorobenzyl)-1H-pyrazol-5-yl]ethyl}sulfonyl)hexanamide]",90 to 92
3,"CCCCOC(=O)NS(=O)(=O)/C=C/c1cc(OCCCC)nn1Cc1ccc(Cl)cc1Cl [Example 130, butyl ({(E)-2-[3-butoxy-1-(2,4-dichlorobenzyl)-1H-pyrazol-5-yl]vinyl}sulfonyl)carbamate]",137 to 138
4,"CCCCCC(=O)NS(=O)(=O)/C=C/c1cc(OCCCC)nn1Cc1ccc(Cl)cc1Cl [Example 131, N-({(E)-2-[3-butoxy-1-(2,4-dichlorobenzyl)-1H-pyrazol-5-yl]vinyl}sulfonyl)hexanamide]",117 to 119
5,"CCCCOc1cc(CCS(=O)(=O)NC(=O)OCCC)n(Cc2ccc(Cl)cc2Cl)n1 [Example 132, propyl ({2-[3-butoxy-1-(2,4-dichlorobenzyl)-1H-pyrazol-5-yl]ethyl}sulfonyl)c arbamate]",92 to 94
6,"CCCCOc1cc(CCS(=O)(=O)NC(=O)OCC(C)C)n(Cc2ccc(Cl)cc2Cl)n1 [Example 133, isobutyl ({2-[3-butoxy-1-(2,4-dichlorobenzyl)-1H-pyrazol-5-yl]ethyl}sulfonyl)carbamate]",114 to 116
7,"CCCCOc1cc(CCS(=O)(=O)NC(=O)OCCOC)n(Cc2ccc(Cl)cc2Cl)n1 [Example 134, 2-methoxyethyl ({2-[3-butoxy-1-(2,4-dichlorobenzyl)-1H-pyrazol-5-yl]ethyl}sulfonyl)carbamate]",82 to 86
8,"CCCCCOC(=O)NS(=O)(=O)CCc1cc(OCCCC)nn1Cc1ccc(Cl)cc1Cl [Example 135, pentyl ({2-[3-butoxy-1-(2,4-dichlorobenzyl)-1H-pyrazol-5-yl]ethyl}sulfonyl)carbamate]",91 to 93
9,"CCCCOc1cc(CCS(=O)(=O)NC(=O)OCc2ccccc2)n(Cc2ccc(Cl)cc2Cl)n1 [Example 136, benzyl ({2-[3-butoxy-1-(2,4-dichlorobenzyl)-1H-pyrazol-5-yl]ethyl}sulfonyl)carbamate]",99 to 101
10,"C=CCOC(=O)NS(=O)(=O)CCc1cc(OCCCC)nn1Cc1ccc(Cl)cc1Cl [Example 137, allyl ({2-[3-butoxy-1-(2,4-dichlorobenzyl)-1H-pyrazol-5-yl]ethyl}sulfonyl)carbamate]",94 to 95
11,"CCCCOc1cc(CCS(=O)(=O)NC(=O)OCc2ccccc2)n(Cc2ccc(Cl)cc2Cl)n1 [Example 138, benzyl ({2-[3-butoxy-1-(2,4-dichlorobenzyl)-1H-pyrazol-5-yl]ethyl}sulfonyl)carbamate]",92 to 95
12,"CCCCOc1cc(CCS(=O)(=O)NC(=O)OC(C)C)n(Cc2ccc(Cl)cc2Cl)n1 [Example 139, isopropyl ({2-[3-butoxy-1-(2,4-dichlorobenzyl)-1H-pyrazol-5-yl]ethyl}sulfonyl)carbamate]",120 to 121
13,"CCCCOc1cc(CCS(=O)(=O)NC(=O)OCC(C)(C)C)n(Cc2ccc(Cl)cc2Cl)n1 [Example 140, 2,2-dimethylpropyl ({2-[3-butoxy-1-(2,4-dichlorobenzyl)-1H-pyrazol-5-yl]ethyl}sulfonyl)carbamate]",116 to 118
14,"CCCCCS(=O)(=O)NC(=O)CCCc1cc(OCCCC)nn1Cc1ccc(Cl)cc1Cl [Example 146, 4-[3-butoxy-1-(2,4-dichlorobenzyl)-1H-pyrazol-5-yl]-N-(pentylsulfonyl)butanamide]",121 to 122
15,"CCCCCS(=O)(=O)NC(=O)CCCCc1cc(OCCCC)nn1Cc1ccc(Cl)cc1Cl [Example 147, 5-[3-butoxy-1-(2,4-dichlorobenzyl)-1H-pyrazol-5-yl]-N-(pentylsulfonyl)pentanamide]",91 to 93
16,"CCCCOc1cc(/C=C/C(=O)NS(=O)(=O)CCC(C)C)n(Cc2ccc(C(F)(F)F)cc2Cl)n1 [Example 150, (2E)-3-{3-butoxy-1-[2-chloro-4-(trifluoromethyl)benzyl]-1H-pyrazol-5-yl}-N-[(3-methylbutyl)sulfonyl]acrylamide]",89.5 to 90.5
